Experimental data published in patent US8623862B2, “Derivatives of N-[(1H-pyrazol-1-yl)aryl]-1H-indole or 1H-indazole-3-carboxamide, preparation thereof and applications thereof in therapeutics” (Sanofi, priority 2011, dated 2014).
Counter-ions that a name gives are not always drawn.

Each compound was assayed on platelet aggregation (assay: Inhibition of platelet aggregation in vitro (rat blood)). Settings: 0.1 h; rat platelet-rich plasma, ADP-induced aggregation, area under the curve of absorbance for 6 minutes; read-out: Inhibition of platelet aggregation in vitro (rat blood).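 For Inhibition of platelet aggregation in vitro (rat blood) in μM: aggregation induced by ADP added as 4 µL of a 250 µM solution.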
Format: cell-based
Procedure: The measurements of platelet aggregation are performed at 37° C. in glass tubes (Chrono-Log—Kordia aggregometer).
Inhibition of Platelet Aggregation In Vitro (Rat Blood)
The blood is taken from male rats of the Sprague-Dawley strain, weighing 250-300 g.
The platelet-rich plasma (PRP) is obtained by centrifugation of the blood at 300 g for 5 minutes, and the measurements of platelet aggregation are performed as described above.
The results are calculated using the area under the curve of absorbance measured for 6 minutes, and expressed as percentage inhibition.

SMILES	IC50 [µM]
CCCC(=O)c1cnn(-c2ccc(NC(=O)c3cn(CC(=O)O)c4ccc(Cl)cc34)cc2)c1C [Compound 3, (3-{[4-(4-butyryl-5-methyl-1H-pyrazol-1-yl)phenyl]carbamoyl}-5-chloro-1H-indol-1-yl)acetic acid]	2.8
CCCC(=O)c1cnn(-c2ccc(NC(=O)c3cn(CC(=O)O)c4cc(C)c(Cl)cc34)cc2)c1C [Compound 4, Sodium (3-{[4-(4-butyryl-5-methyl-1H-pyrazol-1-yl)phenyl]carbamoyl}-5-chloro-6-methyl-1H-indol-1-yl)acetate]	3.3

Same assay, conditions: Rattus norvegicus, Platelet, 0.1 h, read-out: Inhibition of platelet aggregation in vitro (rat blood) in μM

SMILES	IC50 [µM]
CCCC(=O)c1cnn(-c2cnc(NC(=O)c3cn(CC(=O)N4CCN(C)CC4)c4ccc(Cl)cc34)cn2)c1C [Compound 27, N-[5-(4-Butyryl-5-methyl-1H-pyrazol-1-yl)pyrazin-2-yl]-5-chloro-1-[2-(4-methylpiperazin-1-yl)-2-oxoethyl]-1H-indole-3-carboxamide hydrochloride]	0.3
CCCC(=O)c1cnn(-c2ccc(NC(=O)c3cn(CC(=O)N4CCN(CCOC(F)(F)F)CC4)c4ccc(Cl)cc34)nn2)c1C [Compound 30, N-[6-(4-Butyryl-5-methyl-1H-pyrazol-1-yl)pyridazin-3-yl]-5-chloro-1-(2-oxo-2-{4-[2-(trifluoromethoxy)ethyl]piperazin-1-yl}ethyl)-1H-indole-3-carboxamide hydrochloride]	0.1

Same assay, conditions: rat platelet-rich plasma, ADP-induced aggregation, area under the curve of absorbance for 6 minutes; read-out: Inhibition of platelet aggregation in vitro (rat blood);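 for Inhibition of platelet aggregation in vitro (rat blood) in μM: aggregation induced by ADP added as 4 µL of a 250 µM solution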

SMILES	IC50 [µM]
CCCC(=O)c1cnn(-c2ccc(NC(=O)c3cn(CC(=O)N4CCC(O)C4)c4ccc(Cl)cc34)nn2)c1C (racemic) [Compound 49]	0.22
CCCC(=O)c1cnn(-c2ccc(NC(=O)c3cn(CC(=O)N4CCN(CC5CCCO5)CC4)c4ccc(Cl)cc34)nn2)c1C (racemic) [Compound 63]	0.12
CCCC(=O)c1cnn(-c2ccc(NC(=O)c3cn(CC(=O)N4CCN5CCCCC5C4)c4ccc(Cl)cc34)nn2)c1C (racemic) [Compound 67]	0.09
CCCC(=O)c1cnn(-c2ccc(NC(=O)c3cn(CC(=O)O)c4cc(C)ccc34)cc2)c1C [Compound 8]	63
CCCC(=O)c1cnn(-c2ccc(NC(=O)c3cn(CC(=O)O)c4ccc(OC)cc34)cc2)c1C [Compound 12]	17
CCCC(=O)c1cnn(-c2ccc(NC(=O)c3cn(CC(=O)O)c4ccc(C(F)(F)F)cc34)cc2)c1C [Compound 13]	4.6
CCCC(=O)c1cnn(-c2ccc(NC(=O)c3cn(CC(=O)O)c4ccc(Br)cc34)cc2)c1C [Compound 14]	1.9
CCCC(=O)c1cnn(-c2ccc(NC(=O)c3cn(CC(=O)O)c4ccc(-c5ccccc5)cc34)cc2)c1C [Compound 15]	25
CCCC(=O)c1cnn(-c2ccc(NC(=O)c3cn(CC(=O)O)c4cc(C)c(C)cc34)cc2)c1C [Compound 16]	4.6
CCCC(=O)c1cnn(-c2ccc(NC(=O)c3cn(CC(=O)O)c4cc(Cl)c(Cl)cc34)cc2)c1C [Compound 17]	7.3
CCCC(=O)c1cnn(-c2ccc(NC(=O)c3cn(CC(=O)O)c4ccc(F)cc34)cc2)c1C [Compound 18]	36
CCCC(=O)c1cnn(-c2ccc(NC(=O)c3cn(CC(=O)O)c4cc(Br)c(C)cc34)cc2)c1C [Compound 19]	42
CCCC(=O)c1cnn(-c2ccc(NC(=O)c3cn(CC(=O)O)c4cc(C)c(Br)cc34)cc2)c1C [Compound 20]	3.9
CCCC(=O)c1cnn(-c2ccc(NC(=O)c3cn(CC(=O)O)c4cc(F)c(Cl)cc34)cc2)c1C [Compound 21]	2.8
CCCC(=O)c1cnn(-c2ccc(NC(=O)c3cn(CC(=O)O)c4ccc(N(C)C)cc34)cc2)c1C [Compound 22]	1.2
CCCC(=O)c1cnn(-c2ccc(NC(=O)c3cn(CC(=O)O)c4ccc(C#N)cc34)cc2)c1C [Compound 23]	4.1
CCCC(=O)c1cnn(-c2ccc(NC(=O)c3nn(CC(=O)O)c4ccc(C)cc34)cc2)c1C [Compound 24]	37
CCCC(=O)c1cnn(-c2ccc(NC(=O)c3cn(CC(=O)NC)c4ccc(Cl)cc34)nn2)c1C [Compound 32]	0.19
CCCC(=O)c1cnn(-c2ccc(NC(=O)c3cn(CC(=O)NCCO)c4ccc(Cl)cc34)nn2)c1C [Compound 33]	0.08
CCCC(=O)c1cnn(-c2ccc(NC(=O)c3cn(CC(=O)N4CCN(CC(=O)OCC)CC4)c4ccc(Cl)cc34)nn2)c1C [Compound 34]	0.09
CCCC(=O)c1cnn(-c2ccc(NC(=O)c3cn(CC(=O)N4CCOCC4)c4ccc(Cl)cc34)nn2)c1C [Compound 35]	0.19
CCCC(=O)c1cnn(-c2ccc(NC(=O)c3cn(CC(=O)N(C)C)c4ccc(Cl)cc34)nn2)c1C [Compound 36]	0.11
CCCC(=O)c1cnn(-c2ccc(NC(=O)c3cn(CC(=O)N(C)CCO)c4ccc(Cl)cc34)nn2)c1C [Compound 38]	0.07
CCCC(=O)c1cnn(-c2ccc(NC(=O)c3cn(CC(=O)N4CCN(CC(=O)NC(C)C)CC4)c4ccc(Cl)cc34)nn2)c1C [Compound 39]	0.04
CCCC(=O)c1cnn(-c2ccc(NC(=O)c3cn(CC(=O)N4CCCC4)c4ccc(Cl)cc34)nn2)c1C [Compound 40]	0.1
CCCC(=O)c1cnn(-c2ccc(NC(=O)c3cn(CC(=O)N4CCN(C(C)=O)CC4)c4ccc(Cl)cc34)nn2)c1C [Compound 42]	0.15
CCCC(=O)c1cnn(-c2ccc(NC(=O)c3cn(CC(=O)N4CC(C)NC(C)C4)c4ccc(Cl)cc34)nn2)c1C (stereo not shown) [Compound 43]	0.12

SMILES	IC50 [µM]
CCCC(=O)c1cnn(-c2ccc(NC(=O)c3cn(CC(=O)N4CCN(C)C(=O)C4)c4ccc(Cl)cc34)nn2)c1C [Compound 44]	0.16
CCCC(=O)c1cnn(-c2ccc(NC(=O)c3cn(CC(=O)N4CCN(c5ccc(F)cc5)CC4)c4ccc(Cl)cc34)nn2)c1C [Compound 45]	0.42
CCCC(=O)c1cnn(-c2ccc(NC(=O)c3cn(CC(=O)N4CCN(CC(=O)N5CCCC5)CC4)c4ccc(Cl)cc34)nn2)c1C [Compound 46]	0.04
CCCC(=O)c1cnn(-c2ccc(NC(=O)c3cn(CC(=O)N4CCN(CC)CC4)c4ccc(Cl)cc34)nn2)c1C [Compound 47]	0.06
CCCC(=O)c1cnn(-c2ccc(NC(=O)c3cn(CC(=O)N4CCN(CCC)CC4)c4ccc(Cl)cc34)nn2)c1C [Compound 48]	0.14
CCCC(=O)c1cnn(-c2ccc(NC(=O)c3cn(CC(=O)N4CCC(CCO)CC4)c4ccc(Cl)cc34)nn2)c1C [Compound 50]	0.05
CCCC(=O)c1cnn(-c2ccc(NC(=O)c3cn(CC(=O)N4CCN(C(C)C)CC4)c4ccc(Cl)cc34)nn2)c1C [Compound 54]	0.11
CCCCN1CCN(C(=O)Cn2cc(C(=O)Nc3ccc(-n4ncc(C(=O)CCC)c4C)nn3)c3cc(Cl)ccc32)CC1 [Compound 55]	0.16
CCCC(=O)c1cnn(-c2ccc(NC(=O)c3cn(CC(=O)N4CCC(CO)CC4)c4ccc(Cl)cc34)nn2)c1C [Compound 56]	0.3
CCCC(=O)c1cnn(-c2ccc(NC(=O)c3cn(CC(=O)NCCn4cccc4)c4ccc(Cl)cc34)nn2)c1C [Compound 58]	0.45
CCCC(=O)c1cnn(-c2ccc(NC(=O)c3cn(CC(=O)N(C)CCOC)c4ccc(Cl)cc34)nn2)c1C [Compound 61]	0.09
CCCC(=O)c1cnn(-c2ccc(NC(=O)c3cn(CC(=O)N(C)Cc4ccco4)c4ccc(Cl)cc34)nn2)c1C [Compound 62]	0.15
CCCC(=O)c1cnn(-c2ccc(NC(=O)c3cn(CC(=O)N4CCNC(=O)C4)c4ccc(Cl)cc34)nn2)c1C [Compound 64]	0.06
CCCC(=O)c1cnn(-c2ccc(NC(=O)c3cn(CC(=O)N4CCC(N5CCOCC5)CC4)c4ccc(Cl)cc34)nn2)c1C [Compound 65]	0.12
CCCC(=O)c1cnn(-c2ccc(NC(=O)c3cn(CC(=O)N4CC(O)C4)c4ccc(Cl)cc34)nn2)c1C [Compound 66]	0.22
CCCC(=O)c1cnn(-c2ccc(NC(=O)c3cn(CC(=O)N4CCC(O)CC4)c4ccc(Cl)cc34)nn2)c1C [Compound 68]	0.07
CCCC(=O)c1cnn(-c2ccc(NC(=O)c3cn(CC(=O)N4CCN(C(=O)N(C)C)CC4)c4ccc(Cl)cc34)nn2)c1C [Compound 69]	0.1
CCCC(=O)c1cnn(-c2ccc(NC(=O)c3cn(CC(=O)N4CCn5cnnc5C4)c4ccc(Cl)cc34)nn2)c1C [Compound 70]	0.11
CCCC(=O)c1cnn(-c2ccc(NC(=O)c3cn(CC(=O)N4CCS(=O)(=O)CC4)c4ccc(Cl)cc34)nn2)c1C [Compound 71]	0.12
CCCC(=O)c1cnn(-c2ccc(NC(=O)c3cn(CC(=O)N(C)CCCO)c4ccc(Cl)cc34)nn2)c1C [Compound 72]	0.06
CCCC(=O)c1cnn(-c2ccc(NC(=O)c3cn(CC(=O)N4CCN(C5CCS(=O)(=O)C5)CC4)c4ccc(Cl)cc34)nn2)c1C (stereo not shown) [Compound 73]	0.05
CCCC(=O)c1cnn(-c2ccc(NC(=O)c3cn(CC(=O)NCc4n[nH]c(C)n4)c4ccc(Cl)cc34)nn2)c1C [Compound 74]	0.12
CCCC(=O)c1cnn(-c2ccc(NC(=O)c3cn(CC(=O)N4CCC(C(F)(F)F)C4)c4ccc(Cl)cc34)nn2)c1C (stereo not shown) [Compound 75]	0.27
CCCC(=O)c1cnn(-c2ccc(NC(=O)c3cn(CC(=O)N4Cc5ccncc5C4)c4ccc(Cl)cc34)nn2)c1C [Compound 76]	0.06
CCCC(=O)c1cnn(-c2ccc(NC(=O)c3cn(CC(=O)N4CCN(C)C(C)C4)c4ccc(Cl)cc34)nn2)c1C (stereo not shown) [Compound 77]	0.09
CCCC(=O)c1cnn(-c2ccc(NC(=O)c3cn(CC(=O)NC(C)c4nn[nH]n4)c4ccc(Cl)cc34)nn2)c1C (stereo not shown) [Compound 78]	0.28
CCCC(=O)c1cnn(-c2ccc(NC(=O)c3cn(CC(=O)N4CCN(C5CCC5)CC4)c4ccc(Cl)cc34)nn2)c1C [Compound 79]	0.08
